Results reported in patent US20260034119A1, “5-METHOXY-N,N-[…][…], THEIR […], AND METHODS FOR TREATMENT OF NEUROLOGICAL, […], AND SUBSTANCE USE DISORDERS” (priority 2023, published 2026).
Several values for one entry are separate records, joined by “and”; a condition that tells them apart may be missing. Equal values may be shown once. Read-outs that look alike come from different tables or passages of the source.

How the values were obtained:
human 5-HT1A [1] = molecular target: T1, human 5-HT1A (Homo sapiens, UniProt P08908); test: 5-HT1A-mediated cAMP reduction assay (GloSensor, HEK293-T); details: for EC50: Table 2
T1 sequence (P08908 1-422): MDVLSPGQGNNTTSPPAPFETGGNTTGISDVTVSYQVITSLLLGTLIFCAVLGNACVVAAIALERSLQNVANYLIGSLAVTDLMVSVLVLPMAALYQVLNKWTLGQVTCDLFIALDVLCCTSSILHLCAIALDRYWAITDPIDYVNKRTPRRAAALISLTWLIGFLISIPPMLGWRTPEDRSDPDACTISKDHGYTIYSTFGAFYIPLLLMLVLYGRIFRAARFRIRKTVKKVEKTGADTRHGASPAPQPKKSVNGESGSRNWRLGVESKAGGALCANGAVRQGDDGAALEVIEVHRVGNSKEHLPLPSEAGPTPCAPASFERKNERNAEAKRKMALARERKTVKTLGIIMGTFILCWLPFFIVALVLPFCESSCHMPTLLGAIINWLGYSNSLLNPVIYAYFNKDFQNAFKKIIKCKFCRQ

5-HT1A [2] = molecular target: T2, 5-HT1A (Homo sapiens, UniProt P08908); test: BRET signaling assay: 5-HT1A-mediated activation of heterotrimeric Gi1 (TRUPATH, HEK293-T)
[3] = Mouse brain tissue binding; format: in vitro ADME
5-HT2A = 5-HT2A (Homo sapiens, UniProt P28223); test: cell-based
human 5-HT1A [4] = molecular target: T1, human 5-HT1A; test: cell-based
5-HT1A [5] = molecular target: T2, 5-HT1A; test: cell-based
[6] = EC50 (nM) Mean BRET Gq-2A, Table 2
[7] = EC50 (nM) Mean BRET Gi1-1A, Table 2

Sequence of 5-HT2A (P28223 whole entry): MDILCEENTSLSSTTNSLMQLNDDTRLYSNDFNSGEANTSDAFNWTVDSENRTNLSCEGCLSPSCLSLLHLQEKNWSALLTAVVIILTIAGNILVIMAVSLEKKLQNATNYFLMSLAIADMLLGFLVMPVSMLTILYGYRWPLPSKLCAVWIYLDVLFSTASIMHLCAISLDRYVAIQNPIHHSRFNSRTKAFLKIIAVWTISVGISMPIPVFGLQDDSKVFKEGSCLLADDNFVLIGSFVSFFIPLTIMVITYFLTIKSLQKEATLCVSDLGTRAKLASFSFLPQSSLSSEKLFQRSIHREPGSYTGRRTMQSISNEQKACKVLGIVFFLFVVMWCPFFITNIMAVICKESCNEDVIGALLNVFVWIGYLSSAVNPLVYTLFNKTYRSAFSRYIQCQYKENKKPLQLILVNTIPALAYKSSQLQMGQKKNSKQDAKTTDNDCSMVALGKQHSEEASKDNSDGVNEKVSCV

O=C1CC2(CCCC2)CC(=O)N1CCCCN1CCN(c2ncccn2)CC1 [Buspirone, buspirone, reference compound]
Efficacy as %5HT 5-HT1A cAMP (human 5-HT1A [1]; Table 6, commercial ligands): 96.0 %5HT | Emax (5-HT1A [2]; HEK-293T, read-out: Emax, 5-HT1A-mediated activation of Gi1 (BRET)): 93.4% | Efficacy as %5HT 5-HT1A BRET Gi1 (5-HT1A [2]; Table 6, commercial ligands): 93.4 %5HT

NC(=O)N1c2ccccc2C=Cc2ccccc21 [Carbamazepine]
% Bound Mean [3]: 88.2% | % Recovery [3]: 72% | % Unbound [3]: 11.8% | fu [3]: 0.118 | % Compound remaining at 4 h ([3]; 4 h): 96% | % Bound R1 ([3]; replicate R1): 89.0%

COc1ccc2[nH]cc(CCN(C)C)c2c1F [Compound 1]
EC50 (human 5-HT1A [1]; pEC50 Gio(cAMP)-1A): 0.186 nM | EC50 (5-HT1A [2]; EC50 (nM) Mean BRET Gi1-1A): 1.77 nM | EC50 (5-HT2A; [6]): 86.5 nM

CCN(C)CCc1c[nH]c2ccc(OC)c(F)c12 [Compound 2]
EC50 (human 5-HT1A [1]; pEC50 Gio(cAMP)-1A): 0.316 nM | EC50 (5-HT1A [2]; [7]): 1.77 nM | EC50 (5-HT2A; [6]): 99.3 nM

CCN(CC)CCc1c[nH]c2ccc(OC)c(F)c12 [Compound 3]
EC50 (human 5-HT1A [1]; EC50 (nM) Mean Gio(cAMP)-1A): 0.21 nM | EC50 (human 5-HT1A [1]; pEC50 Gio(cAMP)-1A): 0.204 nM | EC50 (5-HT1A [2]; [7]): 3.18 nM | EC50 (5-HT2A; [6]): 673 nM

CCCN(C)CCc1c[nH]c2ccc(OC)c(F)c12 [Compound 4]
EC50 (human 5-HT1A [1]; pEC50 Gio(cAMP)-1A): 0.417 nM | EC50 (5-HT1A [2]; [7]): 3.06 nM | EC50 (5-HT2A; [6]): 115 nM

CCCN(CC)CCc1c[nH]c2ccc(OC)c(F)c12 [Compound 5]
EC50 (human 5-HT1A [1]; pEC50 Gio(cAMP)-1A): 0.151 nM | EC50 (5-HT1A [2]; [7]): 0.95 nM | EC50 (5-HT2A; [6]): 155 nM

CCCN(CCC)CCc1c[nH]c2ccc(OC)c(F)c12 [Compound 6]
EC50 (human 5-HT1A [1]; EC50 (nM) Mean Gio(cAMP)-1A): 1.31 nM | EC50 (5-HT1A [2]; [7]): 3.7 nM | EC50 (5-HT2A; [6]): 142 nM

COc1ccc2[nH]cc(CCN(C)C(C)C)c2c1F [Compound 7]
EC50 (human 5-HT1A [1]; EC50 (nM) Mean Gio(cAMP)-1A): 2.98 nM | EC50 (5-HT1A [2]; [7]): 14.2 nM | EC50 (5-HT2A; [6]): 152 nM

CCCN(CCc1c[nH]c2ccc(OC)c(F)c12)C(C)C [Compound 8]
EC50 (human 5-HT1A [1]; EC50 (nM) Mean Gio(cAMP)-1A): 5.96 nM | EC50 (human 5-HT1A [1]; pEC50 Gio(cAMP)-1A): 5.89 nM | EC50 (5-HT1A [2]; [7]): 16.8 nM | EC50 (5-HT1A [2]; pEC50 BRET Gi1-1A, Table 2): 16.6 nM | EC50 (5-HT2A; [6]): 249 nM

CCN(C)CCc1c[nH]c2ccc(OC)cc12 [Compound 9]
EC50 (human 5-HT1A [4]): 4.44 nM | EC50 (5-HT2A): 37.7 nM | EC50 (5-HT1A [5]): 25.9 nM

COc1ccc2[nH]cc(CCN(C(C)C)C(C)C)c2c1F [Compound 9]
EC50 (human 5-HT1A [1]; EC50 (nM) Mean Gio(cAMP)-1A): 6 nM | EC50 (5-HT1A [2]; [7]): 35.8 nM | EC50 (5-HT2A; [6]): 338 nM

C=CCN(C)CCc1c[nH]c2ccc(OC)c(F)c12 [Compound 10]
EC50 (human 5-HT1A [1]; EC50 (nM) Mean Gio(cAMP)-1A): 2.57 nM | EC50 (5-HT1A [2]; [7]): 8.41 nM | EC50 (5-HT2A; [6]): 156 nM

CCCN(C)CCc1c[nH]c2ccc(OC)cc12 [Compound 10]
EC50 (human 5-HT1A [4]): 18.6 nM | EC50 (5-HT2A): 28.3 nM | EC50 (5-HT1A [5]): 60.3 nM

CCN(CC)CCc1c[nH]c2ccc(OC)cc12 [Compound 11]
EC50 (human 5-HT1A [4]): 11 nM | EC50 (5-HT2A): 172 nM | EC50 (5-HT1A [5]): 37.1 nM

COc1ccc2[nH]cc(CCN3CCCC3)c2c1F [Compound 11]
EC50 (human 5-HT1A [1]; EC50 (nM) Mean Gio(cAMP)-1A): 0.03 nM | EC50 (human 5-HT1A [1]; pEC50 Gio(cAMP)-1A): 0.0282 nM | EC50 (5-HT1A [2]; pEC50 BRET Gi1-1A, Table 2): 0.372 nM | EC50 (5-HT2A; [6]): 300 nM

CCCN(CC)CCc1c[nH]c2ccc(OC)cc12 [Compound 12]
EC50 (human 5-HT1A [4]): 2.47 nM | EC50 (5-HT2A): 22.1 nM | EC50 (5-HT1A [5]): 8.36 nM

COc1ccc2[nH]cc(CCN3CCCCC3)c2c1F [Compound 12]
EC50 (human 5-HT1A [1]; EC50 (nM) Mean Gio(cAMP)-1A): 2.42 nM | EC50 (5-HT1A [2]; [7]): 8.97 nM

CCCN(CCC)CCc1c[nH]c2ccc(OC)cc12 [Compound 13]
EC50 (human 5-HT1A [4]): 3.57 nM and 4.37 nM | EC50 (5-HT2A): 20.2 nM | EC50 (5-HT1A [5]): 15.4 nM

COc1ccc2[nH]cc(CCN3CC=CC3)c2c1F [Compound 13]
EC50 (human 5-HT1A [1]; pEC50 Gio(cAMP)-1A): 0.00229 nM | EC50 (5-HT1A [2]; pEC50 BRET Gi1-1A, Table 2): 0.219 nM | EC50 (5-HT2A; [6]): 120 nM

COc1ccc2[nH]cc(CCN(C)C(C)C)c2c1 [Compound 14]
EC50 (human 5-HT1A [4]): 51.8 nM | EC50 (5-HT2A): 17.3 nM | EC50 (5-HT1A [5]): 112 nM

CCCN(CCc1c[nH]c2ccc(OC)cc12)C(C)C [Compound 15]
EC50 (human 5-HT1A [4]): 26.7 nM | EC50 (5-HT2A): 51.2 nM | EC50 (5-HT1A [5]): 101 nM and 100 nM

C=CCN(C)CCc1c[nH]c2ccc(OC)cc12 [Compound 16]
EC50 (human 5-HT1A [4]): 9.64 nM | EC50 (5-HT2A): 24.5 nM and 25.7 nM | EC50 (5-HT1A [5]): 42.7 nM

CN(C)CCc1c[nH]c2ccc(O)c(F)c12 [Compound 16]
EC50 (human 5-HT1A [1]; pEC50 Gio(cAMP)-1A): 0.251 nM | EC50 (5-HT1A [2]; [7]): 1.13 nM | EC50 (5-HT2A; [6]): 7.46 nM
